Broadly, the IC50 is the concentration that inhibits the measured activity by half. A lower IC50 goes with greater potency.

The experiment deals with CT-L proteasome subunit. In words: CT-L proteasome activity in whole cell lysates of human myeloma cell lines (Suc-Leu-Leu-Val-Tyr-AMC). In kind it is biochemical. The procedure:
Cells were harvested by centrifugation at 1200 r.p.m. at room temperature. Cell pellets were washed with PBS and lysed with assay lysis buffer (50 mM HEPES (2-[4-(2-hydroxyethyl) piperazin-1-yl]ethanesulfonic acid)), pH 7.5; 150 mM NaCl; 1% Triton X-100; 2 mM ATP). Cell lysates were incubated on ice for 30 min, mixed by vortex every 5 min, and centrifuged at 12 000 × g for 10 min. Supernatants were transferred to a 96-well plate in triplicate. For each assay, 10 μg of total protein were incubated for 1 h at 37 °C with increasing concentrations (0.001–10 μM) of test compound or vehicle control diluted in assay buffer (50 mM Tris-HCl (tris(hydroxymethyl)aminomethane-HCl), pH 7.5; 150 mM NaCl). After incubation, a specific fluorogenic proteasome substrate was added to each assay reaction (40 μM in a total volume of 100 μl). […] The excitation wavelength was 360 nm and the fluorescence emission of free AMC released during the enzymatic reaction was detected at 460 nm on a SpectraMax M5 fluorescent spectrophotometric plate reader (Molecular Devices, Sunnyvale, CA, USA). AMC release rate was measured at 37 °C in a kinetic mode, recording every 5 min for 30 min.

In the case of `Cc1ncc(C(=O)N[C@@H](COC(F)F)C(=O)N[C@@H](COC(F)F)C(=O)N[C@@H](Cc2ccccc2)C(=O)[C@@]2(C)CO2)s1` [FV-162], where the note is “in 6 of the 10 cell lines”, the “potency in CT-L inhibition relative to ONX-0912” value was “over five times more potent than ONX-0912”. In addition, the IC50 (total cell lysates, all 10 human myeloma cell lines tested) is under 60 nM.

For the origin of these results see article PMC4650734, “FV-162 is a novel, orally bioavailable, irreversible proteasome inhibitor with improved pharmacokinetics displaying preclinical efficacy with continuous daily dosing” (Cell Death & Disease, 2015).
